Columns and labels:
Details in all cases: in vivo
[1] = Cmax in Sprague-Dawley rat at 3 mg/kg, po by LC-MS/MS analysis; format: ADME, organism-based; parameters: dose 3 mg/kg, route oral
[2] = Volume of distribution in Sprague-Dawley rat at 1 mg/kg, iv by LC-MS/MS analysis; format: ADME, organism-based
[3] = Oral bioavailability in Sprague-Dawley rat at 3 mg/kg by LC-MS/MS analysis; format: ADME, organism-based
[4] = Mean residence time in Sprague-Dawley rat at 1 mg/kg, iv by LC-MS/MS analysis; format: ADME, organism-based
[5] = AUC in Sprague-Dawley rat at 3 mg/kg, po by LC-MS/MS analysis; format: ADME, organism-based
[6] = Volume of distribution in cynomolgus monkey at 1 mg/kg, iv by LC-MS/MS analysis; format: ADME, organism-based, Macaca fascicularis
[7] = Mean residence time in cynomolgus monkey at 1 mg/kg, iv by LC-MS/MS analysis; format: ADME, organism-based, Macaca fascicularis

Row | Compound | Cmax [1] | Vd [2] | bioavailability [3] | MRT [4] | AUC [5] | Vd [6] | MRT [7]
1 | COc1cc(C2CN(C(=O)c3cc(COCC(CO)(CO)CO)ccn3)C2)ccc1OCc1ccc(C2CC2)cc1 | 270 nM | 3.46 L/kg | 116% | 0.91 h | 1.63 µM·h | 0.56 L/kg | 1.2 h
2 | COc1cc(C2CN(C(=O)c3cc(COC[C@@H](O)CO)ccn3)C2)ccc1OCc1ccc(C2CC2)cc1 | 490 nM | 3.27 L/kg | 85.1% | 1.46 h | 2.22 µM·h | 5 L/kg | 7.5 h
3 | COc1cc(C2CN(C(=O)c3cc(OC[C@H](O)CO)ccn3)C2)ccc1OCc1ccc(C2CC2)cc1 | 740 nM | 1.51 L/kg | 75.8% | 1.37 h | 4.15 µM·h | 0.76 L/kg | 0.28 h

— ChEMBL document CHEMBL4422686, “Optimization of an azetidine series as inhibitors of colony stimulating factor-1 receptor (CSF-1R) Type II to lead to the clinical candidate JTE-952” (Bioorg Med Chem Lett, 2019)
